{"source": "patent US20250100962A1", "about": "(CITY OF HOPE, priority 2023, published 2025)", "key": {"[1]": {"system": "U2OS cells containing Per2::dLuc luciferase reporter", "test": "Real-time bioluminescence monitoring of Per2::Luciferase reporter in U2OS cells (LumiCycle)", "format": "cell-based", "conditions": "for LumiCycle Result: Clock activity, Amplitude / LumiCycle Result: Clock activity, Period: Table 1; for LumiCycle Result: Clock activity, Amplitude / LumiCycle Result: Clock activity, Period / LumiCycle Result: Clock activity (overall): U2OS Per2::dLuc; for Modulatory Property: clock-modulatory classification; for LumiCycle Result: Clock activity (overall): CHX analogs screened", "method": "U2OS cells or mouse fibroblasts (MF) containing a Per2-luciferase reporter (Yoo et al., 2004) were seeded at 4×10^5 concentration on 24 well plates and treated at 90% confluence with 1 ml 1×Fresh explant medium with desired compounds and controls. The seeding density was decided after trying several densities and choosing the one that after 24 h lead to 90% confluence. 1× Fresh explant medium was produced using 50% 2×DMEM buffer stock [DMEM powder (Gibco—Thermo Fisher CN: 12800-017), Sterile MilliQ water, pH7 1 M HEPES (Gibco—Thermo Fisher CN:15630080) and 7.5% Sodium Bicarbonate (Gibco—Thermo Fisher CN: 25080094)], 10% FBS (Cytiva), 37.9% Sterile MiliQ water, 1% PSG 100× (Gibco—Thermo Fisher CN: 10378016), 0.1% Sodium Hydroxixe (NaOH) 100 mM (Fishel Chemical CN: S318-500), 1% XenoLight D-Luciferin—Monopotassium Salt Bioluminiscent Substrate 100 mM (PerkinElmer CN: 122799). Treated cells were introduced to the LumiCycle96 (ActiMetrics) were they were cultured and Per2-luciferafe reporter luminescence was measured for 6 days. Raw and subtracted results for 5 days were exported and data was calculated as luminescence counts per second."}, "[2]": {"system": "C2C12 myoblasts", "test": "Myogenic differentiation of C2C12 myoblasts", "format": "cell-based, mouse", "conditions": "Table 1 summary of CHX analogs", "method": "Pictures were taken every day to monitor morphological progression, and proteins and RNA samples were collected on days indicated.\nC2C12, C2C12 Bmal1 KD and C2C12 Scrambled control (SC) myoblasts were seeded at Day −1 at 2×105 concentration on 12 wells plates and maintained in 10% FBS until 80% confluency and treated with indicated compounds and controls in 2% FBS DMEM media to induce differentiation on Day 0. On days 3, 5 and 7 cells were fixed with 4% paraformaldehyde (from 37% Formaldehyde Baker Analyzed) and kept at 4° C. in PBS. Cells were permeabilized with Permeabilization solution of 0.5% Triton X-100 (Fisher Bioreagents CN: 9002-93-1) in PBS and blocked with Blocking solution of 1% BSA (Fisher Bioreagents CN:9048-46-8) in PBS. Primary antibodies were diluted in Washing solution of 0.01% Triton X-100 (Fisher Bioreagents CN: 9002-93-1) in PBS and left overnight at 4° C. Cells were then incubated with secondary antibodies in Washing solution at room temperature for 1 h. 1 μg/ml 4′,6′-diamidine-2′-phenylindole dihydrochloride (DAPI) was used to label for nuclei. […] To quantify the proliferation of myoblast, when needed, cells were treated with 1 μg/ml of EdU for 3 h before fixation. Detection of EdU was performed with Click-iT EdU Alexa Fluor 488 Imaging Kit before applying the immunofluorescence staining as described above."}, "[3]": {"system": "CLOCK protein", "test": "CLOCK protein palmitoylation (acyl-biotin exchange) and stability", "format": "cell-based", "from_the_text": "FIGS. 11A-11C. Analysis of CLOCK protein S-palmitoylation. FIGS. 11A-11B: Identification of CLOCK palmitoylation by acyl-biotin exchange method using hydroxylamine (HAM). […] FIG. 11C: Structural modeling of the palmitoylation pocket and the docking pose within the hydrophobic pocket that lies between the interface of CLOCK interaction with Bmal1. FIGS. 12A-12C. Palmitoylation modulates CLOCK protein stability and interaction with Bmal1. […] FIG. 12B: CLOCK palmitoylation cysteine mutations inhibit its interaction with heterodimer partner Bmal1 and Bmal1 stability by single amino acid mutations. FIG. 12C: CLOCK palmitoylation site mutations attenuated CLOCK-mediated transcription activation."}, "[4]": {"system": "mice", "conditions": "chow and high-fat diet; Xiong et al., 2023; cited from earlier work"}}, "data": [{"smiles": "N=C(NCCCCCCCCCCCCCCNC(=N)NC(=N)Nc1ccc(Cl)cc1)NC(=N)Nc1ccc(Cl)cc1", "note": "[CM005]", "values": [{"measurement": "LumiCycle Result: Clock activity, Amplitude", "setting": "[1]", "result": "Amplitude: Increased at low"}, {"measurement": "LumiCycle Result: Clock activity, Period", "setting": "[1]", "result": "Period: Lengthening"}, {"measurement": "Modulatory Property", "setting": "[1]", "result": "Inhibitor"}, {"measurement": "Myogenesis", "setting": "[2]", "result": "Slight inhition"}]}, {"smiles": "CCCCCCCNC(=N)NC(=N)Nc1ccc(Cl)cc1", "note": "[CM001]", "values": [{"measurement": "LumiCycle Result: Clock activity, Amplitude", "setting": "[1]", "result": "Amplitude: No effect"}, {"measurement": "Myogenesis", "setting": "[2]", "result": "No effect"}]}, {"smiles": "CCCCCCCCCCCCCCC(Br)C(=O)O", "note": "(centres unmarked) [2-BrP]", "values": [{"measurement": "CLOCK protein stability", "setting": "[3]", "result": "reduces CLOCK protein stability"}, {"measurement": "CLOCK palmitoylation", "setting": "[3]; Flag-tagged CLOCK in HEK 293T cells", "result": "loss of CLOCK palmitoylation"}]}, {"smiles": "N=C(NCCCCCCNC(=N)Nc1ccc(Cl)cc1)Nc1ccc(Cl)cc1", "note": "[CM004]", "values": [{"measurement": "LumiCycle Result: Clock activity, Amplitude", "setting": "[1]", "result": "Amplitude: Increased"}, {"measurement": "LumiCycle Result: Clock activity, Period", "setting": "[1]", "result": "Period: Shortening"}, {"measurement": "Modulatory Property", "setting": "[1]", "result": "Activator"}, {"measurement": "Myogenesis", "setting": "[2]", "result": "Enhanced"}]}, {"smiles": "CCCCCCCCCCC[C@@H](C[C@@H]1OC(=O)[C@H]1CCCCCC)OC(=O)[C@H](CC(C)C)NC=O", "note": "[Orlistat]", "values": [{"measurement": "CLOCK protein stability", "setting": "[3]", "result": "reduces CLOCK protein stability"}]}, {"smiles": "CCCCCCCNC(=N)Nc1nc2ccc(Cl)cc2[nH]1", "note": "[CM007]", "values": [{"measurement": "LumiCycle Result: Clock activity (overall)", "setting": "[1]", "result": "No effect"}]}, {"smiles": "COc1ccc(-c2cc(=O)c3c(OC)c(OC)c(OC)c(OC)c3o2)cc1OC", "note": "[Nobiletin]", "values": [{"measurement": "anti-obesity effect", "setting": "[4]", "result": "strong anti-obesity effect"}]}, {"smiles": "N=C(NCCCCCCNC(N)=O)NC(=N)Nc1ccc(Cl)cc1", "note": "[CM008]", "values": [{"measurement": "LumiCycle Result: Clock activity (overall)", "setting": "[1]", "result": "Cellular toxicity"}]}, {"smiles": "N=C(NCCCCCCNC(=N)Nc1ccc(Cl)cc1)NC(=N)Nc1ccc(Cl)cc1", "note": "[CM003]", "values": [{"measurement": "LumiCycle Result: Clock activity (overall)", "setting": "[1]", "result": "No effect"}]}]}
